The source of these data is patent US20110195900A1, “PEPTIDIC PTH RECEPTOR AGONISTS” (FERRING B.V., priority 2008, published 2011).

The EC50 is the concentration giving half of the maximal effect. The low end stands for greater potency, the high end for weaker potency.

In the experiment the target is T1, human PTH-1 receptor (Homo sapiens, UniProt Q03431).
T1 construct: expressed in transfected cells; host or cells: HEK-293
T1 sequence (Q03431 27-593): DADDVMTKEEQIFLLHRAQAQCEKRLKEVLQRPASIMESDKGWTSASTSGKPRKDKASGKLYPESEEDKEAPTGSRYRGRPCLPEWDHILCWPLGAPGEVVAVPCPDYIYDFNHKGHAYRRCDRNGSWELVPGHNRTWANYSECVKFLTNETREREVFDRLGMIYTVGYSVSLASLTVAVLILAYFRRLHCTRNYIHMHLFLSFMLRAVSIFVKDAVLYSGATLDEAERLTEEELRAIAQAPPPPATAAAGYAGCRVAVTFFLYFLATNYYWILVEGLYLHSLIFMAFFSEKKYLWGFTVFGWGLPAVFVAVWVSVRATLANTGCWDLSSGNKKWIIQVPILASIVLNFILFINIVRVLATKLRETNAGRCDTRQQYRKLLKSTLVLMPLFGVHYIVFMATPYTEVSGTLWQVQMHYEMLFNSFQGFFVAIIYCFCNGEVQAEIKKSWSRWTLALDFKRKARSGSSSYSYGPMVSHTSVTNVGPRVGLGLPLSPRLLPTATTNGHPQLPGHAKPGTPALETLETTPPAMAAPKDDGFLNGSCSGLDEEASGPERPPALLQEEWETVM
In words: Reporter gene assay (CRE-luciferase) for agonist activity in transiently transfected HEK-293 cells. The format is cell-based. The note with it: for hPTHR-2/hPTHR-1: Table 3, ratio of EC50 values, selectivity for hPTH-1 receptor over hPTH-2 receptor. An outline of the steps:
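Selectivity came from luciferase transcriptional reporter assays expressing human PTH-2 receptor. PTH-1 agonism used transiently transfected HEK-293 cells carrying SV40-promoter receptor and cAMP-responsive-element luciferase; 4-5 h compound exposure, lysis, luminescence, non-linear-regression EC50/efficacy; ≥3 independent runs, PTH (1-34) control each.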

Molecules are shown by their SMILES. Non-standard residues stand in square brackets, D forms with d. Residues, ends and D or L forms follow the SMILES beside them. 1Nal = N[C@@H](Cc1cccc2ccccc12)C(=O)O; β3hI = CC[C@H](C)[C@H](N)CC(=O)O; Nle = CCCC[C@H](N)C(=O)O; Aib = CC(C)(N)C(=O)O

For `CCCC[C@H](NC(=O)[C@H](CC(C)C)NC(=O)[C@H](CCC(N)=O)NC(=O)[C@@H](NC(=O)[C@H](CCC(=O)O)NC(=O)[C@H](CO)NC(=O)[C@@H](NC(=O)[C@@H](N)CO)C(C)C)[C@@H](C)CC)C(=O)N[C@@H](Cc1c[nH]cn1)C(=O)N[C@@H](CC(N)=O)C(=O)N[C@@H](CC(C)C)C(=O)NCC(=O)N[C@@H](CCCCN)C(=O)N[C@@H](Cc1c[nH]cn1)C(=O)N[C@@H](CC(C)C)C(=O)N[C@@H](CC(N)=O)C(=O)N[C@@H](CO)C(=O)N[C@H](CC(=O)N[C@@H](CCC(=O)O)C(=O)N[C@@H](CCCNC(=N)N)C(=O)N[C@H](C(=O)N[C@@H](CCC(=O)O)C(=O)N[C@@H](Cc1cccc2ccccc12)C(=O)N[C@@H](CC(C)C)C(=O)N[C@@H](CCCNC(=N)N)C(=O)N[C@@H](CCCCN)C(=O)N[C@@H](CC(C)C)C(=O)N[C@@H](CC(C)C)C(=O)N[C@@H](CCC(N)=O)C(=O)N[C@@H](CO)C(=O)N[C@H](C(=O)N[C@@H](Cc1c[nH]cn1)C(=O)N[C@@H](CC(N)=O)C(=O)N[C@@H](Cc1ccccc1)C(N)=O)C(C)C)C(C)C)[C@@H](C)CC` [SEQ ID NO: 26, [Nle^8, β-hIle^18,1-Nal^23, Leu^27, Ser^30] hPTH (1-34)-NH2] (H-SVSEIQL[Nle]HNLGKHLNS[β3hI]ERVE[1Nal]LRKLLQSVHNF-NH2), the EC50 was 0.19 nM and the hPTHR-2/hPTHR-1 turned out to be 98.

As for `CCCC[C@H](NC(=O)[C@H](CC(C)C)NC(=O)[C@H](CCC(N)=O)NC(=O)[C@@H](NC(=O)[C@H](CCC(=O)O)NC(=O)[C@H](CO)NC(=O)[C@@H](NC(=O)[C@@H](N)CO)C(C)C)[C@@H](C)CC)C(=O)N[C@@H](Cc1c[nH]cn1)C(=O)N[C@@H](CC(N)=O)C(=O)N[C@@H](CC(C)C)C(=O)NCC(=O)N[C@@H](CCCCN)C(=O)N[C@@H](Cc1c[nH]cn1)C(=O)N[C@@H](CC(C)C)C(=O)N[C@@H](CC(N)=O)C(=O)N[C@@H](CO)C(=O)N[C@H](CC(=O)N[C@@H](CCC(=O)O)C(=O)N[C@@H](CCCNC(=N)N)C(=O)N[C@H](C(=O)N[C@@H](CCC(=O)O)C(=O)N[C@@H](Cc1cccc2ccccc12)C(=O)N[C@@H](CC(C)C)C(=O)N[C@@H](CCCNC(=N)N)C(=O)N[C@@H](CCCCN)C(=O)N[C@@H](CC(C)C)C(=O)N[C@@H](CC(C)C)C(=O)N[C@@H](CCC(N)=O)C(=O)N[C@@H](CC(=O)O)C(=O)N[C@H](C(=O)N[C@@H](Cc1c[nH]cn1)C(=O)N[C@@H](CCC(=O)O)C(=O)N[C@@H](Cc1ccccc1)C(N)=O)C(C)C)C(C)C)[C@@H](C)CC` [SEQ ID NO: 27, [Nle^8, β-hIle^18,1-Nal^23, Leu^27, Glu^33] hPTH (1-34)-NH2] (H-SVSEIQL[Nle]HNLGKHLNS[β3hI]ERVE[1Nal]LRKLLQDVHEF-NH2; N-terminus assumed), the EC50 stood at 0.12 nM and the hPTHR-2/hPTHR-1 is 344.

Regarding `CCCC[C@H](NC(=O)[C@H](CC(C)C)NC(=O)[C@H](CCC(N)=O)NC(=O)[C@@H](NC(=O)[C@H](CCC(=O)O)NC(=O)[C@H](CO)NC(=O)[C@@H](NC(=O)[C@@H](N)CO)C(C)C)[C@@H](C)CC)C(=O)N[C@@H](Cc1c[nH]cn1)C(=O)N[C@@H](CC(N)=O)C(=O)N[C@@H](CC(C)C)C(=O)NCC(=O)N[C@@H](CCCCN)C(=O)N[C@@H](Cc1c[nH]cn1)C(=O)N[C@@H](CC(C)C)C(=O)N[C@@H](CC(N)=O)C(=O)N[C@@H](CO)C(=O)N[C@H](CC(=O)N[C@@H](CCC(=O)O)C(=O)N[C@@H](CCCNC(=N)N)C(=O)N[C@H](C(=O)N[C@@H](CCC(=O)O)C(=O)N[C@@H](Cc1cccc2ccccc12)C(=O)N[C@@H](CC(C)C)C(=O)N[C@@H](CCCNC(=N)N)C(=O)N[C@@H](CCCCN)C(=O)N[C@@H](CC(C)C)C(=O)N[C@@H](CC(C)C)C(=O)N[C@@H](CCC(N)=O)C(=O)N[C@@H](CC(=O)O)C(=O)N[C@H](C(=O)N[C@@H](Cc1c[nH]cn1)C(=O)N[C@@H](CC(N)=O)C(=O)N[C@@H](CCC(=O)O)C(N)=O)C(C)C)C(C)C)[C@@H](C)CC` [SEQ ID NO: 29, [Nle^8, β-hIle^18,1-Nal^23, Leu^27, Glu^34] hPTH (1-34)-NH2] (H-SVSEIQL[Nle]HNLGKHLNS[β3hI]ERVE[1Nal]LRKLLQDVHNE-NH2; N-terminus assumed), the EC50 is 0.12 nM and the hPTHR-2/hPTHR-1 came out at 474.

As to `CCCC[C@H](NC(=O)[C@H](CC(C)C)NC(=O)[C@H](CCC(N)=O)NC(=O)[C@@H](NC(=O)[C@H](CCC(=O)O)NC(=O)[C@H](CO)NC(=O)[C@@H](NC(=O)[C@@H](N)CO)C(C)C)[C@@H](C)CC)C(=O)N[C@@H](Cc1c[nH]cn1)C(=O)N[C@@H](CC(N)=O)C(=O)N[C@@H](CC(C)C)C(=O)NC(C)(C)C(=O)NC(C)(C)C(=O)N[C@@H](Cc1c[nH]cn1)C(=O)N[C@@H](CC(C)C)C(=O)N[C@@H](CC(N)=O)C(=O)N[C@@H](CO)C(=O)N[C@H](CC(=O)N[C@@H](CCC(=O)O)C(=O)N[C@@H](CCCNC(=N)N)C(=O)N[C@H](C(=O)N[C@@H](CCC(=O)O)C(=O)N[C@@H](Cc1cccc2ccccc12)C(=O)N[C@@H](CC(C)C)C(=O)N[C@@H](CCCNC(=N)N)C(=O)N[C@@H](CCCCN)C(=O)N[C@@H](CC(C)C)C(=O)N[C@@H](CC(C)C)C(=O)N[C@@H](CCC(N)=O)C(=O)N[C@@H](CC(=O)O)C(=O)N[C@H](C(=O)N[C@@H](Cc1c[nH]cn1)C(=O)N[C@@H](CC(N)=O)C(=O)N[C@@H](Cc1ccccc1)C(N)=O)C(C)C)C(C)C)[C@@H](C)CC` [SEQ ID NO: 31, [Nle^8, Aib^12,13, β-hIle^18,1-Nal^23, Leu^27] hPTH (1-34)-NH2] (H-SVSEIQL[Nle]HNL[Aib][Aib]HLNS[β3hI]ERVE[1Nal]LRKLLQDVHNF-NH2; N-terminus assumed), the EC50 is 0.25 nM and the hPTHR-2/hPTHR-1 was found to be 138.

Regarding `CCCC[C@H](NC(=O)[C@H](CC(C)C)NC(=O)[C@H](CCC(N)=O)NC(=O)[C@@H](NC(=O)[C@H](CCC(=O)O)NC(=O)[C@H](CO)NC(=O)[C@@H](NC(=O)[C@@H](N)CO)C(C)C)[C@@H](C)CC)C(=O)N[C@@H](Cc1c[nH]cn1)C(=O)N[C@@H](CC(N)=O)C(=O)N[C@@H](CC(C)C)C(=O)NCC(=O)NC(C)(C)C(=O)N[C@@H](Cc1c[nH]cn1)C(=O)N[C@@H](CC(C)C)C(=O)N[C@@H](CC(N)=O)C(=O)N[C@@H](CO)C(=O)N[C@H](CC(=O)N[C@@H](CCC(=O)O)C(=O)N[C@@H](CCCNC(=N)N)C(=O)N[C@H](C(=O)N[C@@H](CCC(=O)O)C(=O)N[C@@H](Cc1cccc2ccccc12)C(=O)N[C@@H](CC(C)C)C(=O)N[C@@H](CCCNC(=N)N)C(=O)N[C@@H](CCCCN)C(=O)N[C@@H](CC(C)C)C(=O)N[C@@H](CC(C)C)C(=O)N[C@@H](CCC(N)=O)C(=O)N[C@@H](CC(=O)O)C(=O)N[C@H](C(=O)N[C@@H](Cc1c[nH]cn1)C(=O)N[C@@H](CC(N)=O)C(=O)N[C@@H](Cc1ccccc1)C(N)=O)C(C)C)C(C)C)[C@@H](C)CC` [SEQ ID NO: 33, [Nle^8, Aib^13, β-hIle^18,1-Nal^23, Leu^27] hPTH (1-34)-NH2] (H-SVSEIQL[Nle]HNLG[Aib]HLNS[β3hI]ERVE[1Nal]LRKLLQDVHNF-NH2), the EC50 stood at 0.14 nM and the hPTHR-2/hPTHR-1 was found to be 481.

In the case of `CCCC[C@H](NC(=O)[C@H](CC(C)C)NC(=O)[C@H](CCC(N)=O)NC(=O)[C@@H](NC(=O)[C@H](CCC(=O)O)NC(=O)[C@H](CO)NC(=O)[C@@H](NC(=O)[C@@H](N)CO)C(C)C)[C@@H](C)CC)C(=O)N[C@@H](Cc1c[nH]cn1)C(=O)N[C@@H](CC(N)=O)C(=O)N[C@@H](CC(C)C)C(=O)NCC(=O)N[C@@H](CCCCN)C(=O)N[C@@H](Cc1c[nH]cn1)C(=O)N[C@@H](CC(C)C)C(=O)N[C@@H](CCCCN)C(=O)N[C@@H](CO)C(=O)N[C@H](CC(=O)N[C@@H](CCC(=O)O)C(=O)N[C@@H](CCCNC(=N)N)C(=O)N[C@H](C(=O)N[C@@H](CCC(=O)O)C(=O)N[C@@H](Cc1cccc2ccccc12)C(=O)N[C@@H](CC(C)C)C(=O)N[C@@H](CCCNC(=N)N)C(=O)N[C@@H](CCCCN)C(=O)N[C@@H](CC(C)C)C(=O)N[C@@H](CC(C)C)C(=O)N[C@@H](CCC(N)=O)C(=O)N[C@@H](CC(=O)O)C(=O)N[C@H](C(=O)N[C@@H](Cc1c[nH]cn1)C(=O)N[C@@H](CC(N)=O)C(=O)N[C@@H](Cc1ccccc1)C(N)=O)C(C)C)C(C)C)[C@@H](C)CC` [SEQ ID NO: 34, [Nle^8, Lys^16, β-hIle^18,1-Nal^23, Leu^27] hPTH (1-34)-NH2] (H-SVSEIQL[Nle]HNLGKHLKS[β3hI]ERVE[1Nal]LRKLLQDVHNF-NH2; N-terminus assumed), the response was half-maximal at 0.08 nM (EC50) and the hPTHR-2/hPTHR-1 is given as 373.
